One test deals with U2OS cells. In words: Titre Blue cell viability assay, U2OS cells. As to conditions: Homo sapiens, U2OS. The test is classed as cell-based.
Another test deals with HSP72 in U2OS cells. Put plainly: Cell-based ELISA (Cellisa) assay, U2OS cells: inhibition of 17-AAG-induced HSP72. As to conditions: Homo sapiens; U2OS cells (Examples 1-168). Background: An ELISA detects its analyte on a solid surface through an enzyme-linked reagent.

SMILES strings stand for the structures. Where a name gives a salt, the structure may show the parent alone.

In the case of `Cc1ccc(NC(=O)c2ccc3c(c2)OCCO3)cc1NC(=O)c1ccc2nc(O[C@@H]3CCN(C)C3)ccc2c1` [Example 49, (R)—N-(5-(2,3-dihydrobenzo[b][1,4]dioxine-6-carboxamido)-2-methylphenyl)-2-((1-methylpyrrolidin-3-yl)oxy)quinoline-6-carboxamide], the results for the half-maximal inhibitory concentration (IC50) with U2OS cells and in the test with HSP72 in U2OS cells were 0.008 µM and 0.002 µM, respectively.
The like results for `Cc1ccc(NC(=O)c2ccc3c(c2)OCCO3)cc1NC(=O)c1ccc2nc(OC3CCN(C)CC3)ccc2c1` [Example 50, N-(5-(2,3-dihydrobenzo[b][1,4]dioxine-6-carboxamido)-2-methylphenyl)-2-((1-methylpiperidin-4-yl)oxy)quinoline-6-carboxamide] were, in that order, 0.01 µM and 0.003 µM.
The like results for `Cc1ccc(NC(=O)c2ccc3c(c2)OCCO3)cc1NC(=O)c1ccc2nc(OCCCN(C)C)ccc2c1` [Example 51, N-(5-(2,3-dihydrobenzo[b][1,4]dioxine-6-carboxamido)-2-methylphenyl)-2-(3-(dimethylamino)propoxy)quinoline-6-carboxamide] were, in that order, 0.01 µM and 0.004 µM.
Consider `Cc1ccc(NC(=O)c2ccc3c(c2)OCCO3)cc1NC(=O)c1ccc2nc(OCCCN3CCCCC3)ccc2c1` [Example 52, N-(5-(2,3-dihydrobenzo[b][1,4]dioxine-6-carboxamido)-2-methylphenyl)-2-(3-(piperidin-1-yl)propoxy)quinoline-6-carboxamide], for which the results for the IC50 in the test on U2OS cells and in the test on HSP72 in U2OS cells were 0.006 µM and 0.012 µM, respectively.
The like results for `Cc1ccc(NC(=O)c2ccc3c(c2)OCCO3)cc1NC(=O)c1ccc2nc(OC[C@@H]3CCCN3C)ccc2c1` [Example 53, (S)—N-(5-(2,3-dihydrobenzo[b][1,4]dioxine-6-carboxamido)-2-methylphenyl)-2-((1-methylpyrrolidin-2-yl)methoxy)quinoline-6-carboxamide] were, in that order, 0.007 µM and 0.007 µM.
Turning to `Cc1ccc(NC(=O)c2ccc3c(c2)OCCO3)cc1NC(=O)c1ccc2nc(OCCN3CCCCC3)ccc2c1` [Example 54, N-(5-(2,3-dihydrobenzo[b][1,4]dioxine-6-carboxamido)-2-methylphenyl)-2-(2-(piperidin-1-yl)ethoxy)quinoline-6-carboxamide], the values for the IC50 in the test with U2OS cells and in the test on HSP72 in U2OS cells were 0.007 µM and 0.01 µM, respectively.
The like results for `Cc1ccc(NC(=O)c2ccc3c(c2)OCCO3)cc1NC(=O)c1ccc2nc(OCCCN3CCOCC3)ccc2c1` [Example 55, N-(5-(2,3-dihydrobenzo[b][1,4]dioxine-6-carboxamido)-2-methylphenyl)-2-(3-morpholinopropoxy)quinoline-6-carboxamide] were, in that order, 0.02 µM and 0.013 µM.
Taken in the same sequence, the figures for `Cc1ccc(NC(=O)c2ccc3c(c2)OCCO3)cc1NC(=O)c1ccc2nc(OCCCN3CCCC3)ccc2c1` [Example 56, N-(5-(2,3-dihydrobenzo[b][1,4]dioxine-6-carboxamido)-2-methylphenyl)-2-(3-(pyrrolidin-1-yl)propoxy)quinoline-6-carboxamide] were 0.003 µM and 0.013 µM.
The like results for `Cc1ccc(NC(=O)c2ccc3c(c2)OCCO3)cc1NC(=O)c1ccc2nc(OCCN3CCCC(F)C3)ccc2c1` (stereo not shown) [Example 57, N-(5-(2,3-dihydrobenzo[b][1,4]dioxine-6-carboxamido)-2-methylphenyl)-2-(2-(3-fluoropiperidin-1-yl)ethoxy)quinoline-6-carboxamide] were, in that order, 0.031 µM and 0.037 µM.
As for `Cc1ccc(NC(=O)c2ccc3c(c2)OCCO3)cc1NC(=O)c1ccc2nc(N(C)CCN(C)C)ccc2c1` [Example 58, N-(5-(2,3-dihydrobenzo[b][1,4]dioxine-6-carboxamido)-2-methylphenyl)-2-((2-(dimethylamino)ethyl)(methyl)amino)quinoline-6-carboxamide], the IC50 (commonly the concentration that inhibits the measured activity by half) in the test with U2OS cells is 0.033 µM; in the test with HSP72 in U2OS cells it was 0.015 µM.
The like results for `Cc1ccc(NC(=O)c2ccc3c(c2)OCCO3)cc1NC(=O)c1ccc2nc(CCN3CCCC3)ccc2c1` [Example 59, N-(5-(2,3-dihydrobenzo[b][1,4]dioxine-6-carboxamido)-2-methylphenyl)-2-(2-(pyrrolidin-1-yl)ethyl)quinoline-6-carboxamide] were, in that order, 0.41 µM and 0.015 µM.
Taken in the same sequence, the figures for `Cc1ccc(NC(=O)c2ccc3c(c2)OCCO3)cc1NC(=O)c1ccc2nc(OCCN3CCC3)ccc2c1` [Example 60, 2-(2-(azetidin-1-yl)ethoxy)-N-(5-(2,3-dihydrobenzo[b][1,4]dioxine-6-carboxamido)-2-methylphenyl)quinoline-6-carboxamide] were 0.013 µM and 0.016 µM.
Taken in the same sequence, the figures for `Cc1ccc(NC(=O)c2ccc3c(c2)OCCO3)cc1NC(=O)c1ccc2nc(OCCN3CCCC3C)ccc2c1` (stereo not shown) [Example 61, N-(5-(2,3-dihydrobenzo[b][1,4]dioxine-6-carboxamido)-2-methylphenyl)-2-(2-(2-methylpyrrolidin-1-yl)ethoxy)quinoline-6-carboxamide] were 0.018 µM and 0.016 µM.
For the molecule `Cc1ccc(NC(=O)c2ccc3c(c2)OCCO3)cc1NC(=O)c1ccc2nc(OCCN(C)C)ccc2c1` [Example 62, N-(5-(2,3-dihydrobenzo[b][1,4]dioxine-6-carboxamido)-2-methylphenyl)-2-(2-(dimethylamino)ethoxy)quinoline-6-carboxamide], the IC50 stood at 0.016 µM in the test with U2OS cells and 0.017 µM in the test on HSP72 in U2OS cells.
The like results for `Cc1ccc(NC(=O)c2ccc3c(c2)OCCO3)cc1NC(=O)c1ccc2nc(N(C)CCN3CCCC3)ccc2c1` [Example 64, N-(5-(2,3-dihydrobenzo[b][1,4]dioxine-6-carboxamido)-2-methylphenyl)-2-(methyl(2-(pyrrolidin-1-yl)ethyl)amino)quinoline-6-carboxamide] were, in that order, 0.032 µM and 0.025 µM.
Taken in the same sequence, the figures for `Cc1ccc(NC(=O)c2ccc3c(c2)OCCO3)cc1NC(=O)c1ccc2nc(OCCN3CC[C@H](F)C3)ccc2c1` [Example 65, (S)—N-(5-(2,3-dihydrobenzo[b][1,4]dioxine-6-carboxamido)-2-methylphenyl)-2-(2-(3-fluoropyrrolidin-1-yl)ethoxy)quinoline-6-carboxamide] were 0.007 µM and 0.029 µM.
Taken in the same sequence, the figures for `Cc1ccc(NC(=O)c2ccc3c(c2)OCCO3)cc1NC(=O)c1ccc2nc(OCCN3CCOCC3)ccc2c1` [Example 66, N-(5-(2,3-dihydrobenzo[b][1,4]dioxine-6-carboxamido)-2-methylphenyl)-2-(2-morpholinoethoxy)quinoline-6-carboxamide] were 0.04 µM and 0.03 µM.
With `Cc1ccc(NC(=O)c2ccc3c(c2)OCCO3)cc1NC(=O)c1ccc2nc(CN3CCCC3)ccc2c1` [Example 67, N-(5-(2,3-dihydrobenzo[b][1,4]dioxine-6-carboxamido)-2-methylphenyl)-2-(pyrrolidin-1-ylmethyl)quinoline-6-carboxamide formate], the IC50 with U2OS cells was found to be 0.033 µM; in the test with HSP72 in U2OS cells, 0.035 µM.
The like results for `Cc1ccc(NC(=O)c2ccc3c(c2)OCCO3)cc1NC(=O)c1ccc2nc(OCC(C)N3CCCC3)ccc2c1` (stereo not shown) [Example 68, N-(5-(2,3-dihydrobenzo[b][1,4]dioxine-6-carboxamido)-2-methylphenyl)-2-(2-(pyrrolidin-1-yl)propoxy)quinoline-6-carboxamide] were, in that order, 0.012 µM and 0.041 µM.
Turning to `Cc1ccc(NC(=O)c2ccc3c(c2)OCCO3)cc1NC(=O)c1ccc2nc(CCN(C)C)ccc2c1` [Example 69, N-(5-(2,3-dihydrobenzo[b][1,4]dioxine-6-carboxamido)-2-methylphenyl)-2-(2-(dimethylamino)ethyl)quinoline-6-carboxamide], the results for the IC50 with U2OS cells and in the test on HSP72 in U2OS cells were 0.305 µM and 0.057 µM, respectively.
The like results for `Cc1ccc(NC(=O)c2ccc3c(c2)OCCO3)cc1NC(=O)c1ccc2nc(CN3CCN(C)CC3)ccc2c1` [Example 70, N-(5-(2,3-dihydrobenzo[b][1,4]dioxine-6-carboxamido)-2-methylphenyl)-2-((4-methylpiperazin-1-yl)methyl)quinoline-6-carboxamide] were, in that order, 0.092 µM and 0.059 µM.
The like results for `Cc1ccc(NC(=O)c2ccc3c(c2)OCCO3)cc1NC(=O)c1ccc2nc(CN(C)C)ccc2c1` [Example 71, N-(5-(2,3-dihydrobenzo[b][1,4]dioxine-6-carboxamido)-2-methylphenyl)-2-((dimethylamino)methyl)quinoline-6-carboxamide] were, in that order, 0.118 µM and 0.082 µM.
The like results for `Cc1ccc(NC(=O)c2ccc3c(c2)OCCO3)cc1NC(=O)c1ccc2nc(OCCN3CCC(F)(F)CC3)ccc2c1` [Example 72, 2-(2-(4,4-difluoropiperidin-1-yl)ethoxy)-N-(5-(2,3-dihydrobenzo[b][1,4]dioxine-6-carboxamido)-2-methylphenyl)quinoline-6-carboxamide] were, in that order, 0.06 µM and 0.105 µM.
For `Cc1ccc(NC(=O)c2ccc3c(c2)OCCO3)cc1NC(=O)c1ccc2nc(OC(C)CN3CCCC3)ccc2c1` (stereo not shown) [Example 73, N-(5-(2,3-dihydrobenzo[b][1,4]dioxine-6-carboxamido)-2-methylphenyl)-2-((1-(pyrrolidin-1-yl)propan-2-yl)oxy)quinoline-6-carboxamide], the IC50 was 0.021 µM in the test on U2OS cells and 0.09 µM in the test with HSP72 in U2OS cells.
The like results for `Cc1ccc(NC(=O)c2ccc3c(c2)OCCO3)cc1NC(=O)c1ccc2nc(CCO)ccc2c1` [Example 75, N-(5-(2,3-dihydrobenzo[b][1,4]dioxine-6-carboxamido)-2-methylphenyl)-2-(2-hydroxyethyl)quinoline-6-carboxamide] were, in that order, 0.056 µM and 0.017 µM.
Taken in the same sequence, the figures for `CNCCCOc1ccc2cc(C(=O)Nc3cc(NC(=O)c4ccc5c(c4)OCCO5)ccc3C)ccc2n1` [Example 76, N-(5-(2,3-dihydrobenzo[b][1,4]dioxine-6-carboxamido)-2-methylphenyl)-2-(3-(methylamino)propoxy)quinoline-6-carboxamide] were 0.01 µM and 0.021 µM.

Values taken from patent US9701664B2, “Fused 1,4-dihydrodioxin derivatives as inhibitors of heat shock transcription factor 1” (Cancer Research Technology Limited, priority 2013, dated 2017).
